The target of assay [1] is T1, Melanocortin receptor 4 (Homo sapiens, UniProt P32245). The class given is functional, cell-based.
A short description of assay [2]: miR-122 activators in hepatoma reporter cells, dose response, cell-based, Huh7 psiCHECK-miR122, Renilla luciferase, cherry-picked (AID 651956).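 Further: huh7 hepatoma cells stably carrying a psiCHECK-2 miR-122 sensor plasmid; renilla luciferase signal reporting endogenous miR-122 activity after 48 h compound exposure.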 The class given is functional.
The target of assay [3] is T2, DNA repair and recombination protein RAD54-like (Homo sapiens, UniProt Q92698).
T2 sequence (Q92698 whole entry): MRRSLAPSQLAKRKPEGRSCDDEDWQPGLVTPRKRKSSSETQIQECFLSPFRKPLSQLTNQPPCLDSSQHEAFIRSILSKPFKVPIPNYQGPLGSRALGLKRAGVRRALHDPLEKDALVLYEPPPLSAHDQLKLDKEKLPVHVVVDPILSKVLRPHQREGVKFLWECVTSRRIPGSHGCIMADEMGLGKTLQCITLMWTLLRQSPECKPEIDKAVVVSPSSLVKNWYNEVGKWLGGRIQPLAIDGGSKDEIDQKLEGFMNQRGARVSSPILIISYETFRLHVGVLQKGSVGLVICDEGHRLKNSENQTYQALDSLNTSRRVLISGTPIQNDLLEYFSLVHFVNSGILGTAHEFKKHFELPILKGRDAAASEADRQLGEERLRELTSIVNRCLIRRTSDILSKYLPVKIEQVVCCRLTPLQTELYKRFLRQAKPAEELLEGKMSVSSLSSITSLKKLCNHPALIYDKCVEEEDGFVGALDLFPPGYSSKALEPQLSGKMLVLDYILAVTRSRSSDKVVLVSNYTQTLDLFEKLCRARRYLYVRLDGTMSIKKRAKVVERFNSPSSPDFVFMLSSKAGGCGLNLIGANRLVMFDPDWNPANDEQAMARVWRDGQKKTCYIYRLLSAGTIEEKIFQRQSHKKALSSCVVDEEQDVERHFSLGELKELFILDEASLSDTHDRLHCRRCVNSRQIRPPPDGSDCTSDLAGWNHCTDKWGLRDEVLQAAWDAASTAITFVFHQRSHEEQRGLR
In words: inhibitors of human RAD54 branch migration, confirmation, biochemical, fluorescence, cherry-picked samples, dose series (AID 651657). The class given is functional.

Assay [4] deals with T3, Sentrin-specific protease 8 (Homo sapiens, UniProt Q96LD8).
T3 sequence (Q96LD8 whole entry): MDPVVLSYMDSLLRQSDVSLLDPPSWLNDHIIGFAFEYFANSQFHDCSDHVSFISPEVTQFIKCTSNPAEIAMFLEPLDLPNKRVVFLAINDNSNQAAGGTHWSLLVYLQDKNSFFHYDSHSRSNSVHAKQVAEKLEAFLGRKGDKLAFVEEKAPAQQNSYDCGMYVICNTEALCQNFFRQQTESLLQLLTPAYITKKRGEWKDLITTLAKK
The class given is functional.

Assay [5] concerns the target T3, Sentrin-specific protease 8. It counts as functional. This is another data set of the same source.
Assay [6] deals with Ras and Rab interactor 1/Tyrosine-protein kinase ABL1 (Homo sapiens, UniProt P00519+Q13671). The class given is functional.
Sequence of Ras and Rab interactor 1/Tyrosine-protein kinase ABL1 (P00519 whole entry): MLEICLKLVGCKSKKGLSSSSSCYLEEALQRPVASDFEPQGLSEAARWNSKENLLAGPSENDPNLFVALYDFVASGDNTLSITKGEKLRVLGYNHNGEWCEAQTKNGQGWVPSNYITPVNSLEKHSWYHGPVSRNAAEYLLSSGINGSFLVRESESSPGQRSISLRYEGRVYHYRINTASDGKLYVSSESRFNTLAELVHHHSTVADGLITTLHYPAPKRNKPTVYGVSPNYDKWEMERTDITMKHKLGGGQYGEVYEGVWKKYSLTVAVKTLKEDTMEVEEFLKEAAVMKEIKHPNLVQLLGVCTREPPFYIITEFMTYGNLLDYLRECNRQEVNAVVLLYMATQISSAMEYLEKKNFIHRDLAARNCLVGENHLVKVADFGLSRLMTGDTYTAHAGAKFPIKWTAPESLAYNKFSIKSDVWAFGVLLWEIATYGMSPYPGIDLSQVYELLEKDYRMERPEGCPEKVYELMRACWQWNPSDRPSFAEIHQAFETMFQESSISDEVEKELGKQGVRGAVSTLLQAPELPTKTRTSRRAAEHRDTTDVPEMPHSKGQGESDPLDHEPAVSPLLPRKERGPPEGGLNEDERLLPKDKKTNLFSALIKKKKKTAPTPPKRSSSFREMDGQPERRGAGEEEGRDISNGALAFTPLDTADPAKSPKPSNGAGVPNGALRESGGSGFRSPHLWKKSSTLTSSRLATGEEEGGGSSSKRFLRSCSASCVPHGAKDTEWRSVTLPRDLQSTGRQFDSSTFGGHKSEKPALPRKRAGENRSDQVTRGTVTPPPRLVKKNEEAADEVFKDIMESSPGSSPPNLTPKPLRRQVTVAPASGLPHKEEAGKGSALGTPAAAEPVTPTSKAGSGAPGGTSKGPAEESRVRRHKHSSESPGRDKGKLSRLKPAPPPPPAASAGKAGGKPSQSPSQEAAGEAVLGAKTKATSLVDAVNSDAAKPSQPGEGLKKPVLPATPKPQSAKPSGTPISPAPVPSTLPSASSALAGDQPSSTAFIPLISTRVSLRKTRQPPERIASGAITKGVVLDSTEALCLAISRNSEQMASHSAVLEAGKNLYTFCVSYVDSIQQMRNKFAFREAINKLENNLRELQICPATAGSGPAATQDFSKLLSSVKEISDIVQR
Sequence of Ras and Rab interactor 1/Tyrosine-protein kinase ABL1 (Q13671 whole entry): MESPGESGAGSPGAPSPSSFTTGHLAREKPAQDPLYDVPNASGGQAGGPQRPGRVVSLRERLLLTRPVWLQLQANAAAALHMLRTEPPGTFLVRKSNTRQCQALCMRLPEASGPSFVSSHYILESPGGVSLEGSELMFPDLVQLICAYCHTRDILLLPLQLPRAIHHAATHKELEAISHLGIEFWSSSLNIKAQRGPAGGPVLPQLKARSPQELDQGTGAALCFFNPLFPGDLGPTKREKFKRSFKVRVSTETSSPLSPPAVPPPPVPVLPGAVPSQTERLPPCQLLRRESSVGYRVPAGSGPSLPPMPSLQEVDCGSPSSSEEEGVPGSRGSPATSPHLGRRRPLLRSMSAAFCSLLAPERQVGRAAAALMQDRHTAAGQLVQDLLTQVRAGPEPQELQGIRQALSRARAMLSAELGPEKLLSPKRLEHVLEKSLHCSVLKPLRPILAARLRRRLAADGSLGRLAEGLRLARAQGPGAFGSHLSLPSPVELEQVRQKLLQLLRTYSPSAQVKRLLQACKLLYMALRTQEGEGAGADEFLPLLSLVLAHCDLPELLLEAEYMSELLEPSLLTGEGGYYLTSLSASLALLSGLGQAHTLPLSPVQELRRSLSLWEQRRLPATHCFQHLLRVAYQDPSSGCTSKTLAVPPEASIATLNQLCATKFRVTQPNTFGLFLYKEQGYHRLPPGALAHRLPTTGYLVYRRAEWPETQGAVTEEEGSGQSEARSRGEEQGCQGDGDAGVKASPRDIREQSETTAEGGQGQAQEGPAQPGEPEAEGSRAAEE
Assay [7] deals with T4, Probable nicotinate-nucleotide adenylyltransferase (Staphylococcus aureus (strain N315), UniProt P65502). It counts as functional, Staphylococcus aureus subsp. aureus N315. To be noted: read-out: IC50_Mean.
T4 sequence (P65502 whole entry): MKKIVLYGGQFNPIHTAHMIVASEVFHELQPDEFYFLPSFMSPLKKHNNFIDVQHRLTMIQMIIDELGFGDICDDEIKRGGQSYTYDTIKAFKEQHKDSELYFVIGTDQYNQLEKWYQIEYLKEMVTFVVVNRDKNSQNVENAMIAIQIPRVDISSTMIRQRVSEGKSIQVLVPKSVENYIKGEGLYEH
Assay [8] concerns the target T4, Probable nicotinate-nucleotide adenylyltransferase. It counts as functional, Staphylococcus aureus subsp. aureus N315.
Assay [9] is described as follows: cytotoxicity toward NIH3T3 fibroblasts, dose response, counter-screen, cell-based, ATP luminescence, mouse fibroblasts (AID 2010).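 Further: cells exposed to compound for about 90 hours before reading.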 It counts as functional.
The target in assay [10] is T5, Rac GTPase-activating protein 1 (Homo sapiens, UniProt Q9H0H5).
T5 sequence (Q9H0H5 whole entry): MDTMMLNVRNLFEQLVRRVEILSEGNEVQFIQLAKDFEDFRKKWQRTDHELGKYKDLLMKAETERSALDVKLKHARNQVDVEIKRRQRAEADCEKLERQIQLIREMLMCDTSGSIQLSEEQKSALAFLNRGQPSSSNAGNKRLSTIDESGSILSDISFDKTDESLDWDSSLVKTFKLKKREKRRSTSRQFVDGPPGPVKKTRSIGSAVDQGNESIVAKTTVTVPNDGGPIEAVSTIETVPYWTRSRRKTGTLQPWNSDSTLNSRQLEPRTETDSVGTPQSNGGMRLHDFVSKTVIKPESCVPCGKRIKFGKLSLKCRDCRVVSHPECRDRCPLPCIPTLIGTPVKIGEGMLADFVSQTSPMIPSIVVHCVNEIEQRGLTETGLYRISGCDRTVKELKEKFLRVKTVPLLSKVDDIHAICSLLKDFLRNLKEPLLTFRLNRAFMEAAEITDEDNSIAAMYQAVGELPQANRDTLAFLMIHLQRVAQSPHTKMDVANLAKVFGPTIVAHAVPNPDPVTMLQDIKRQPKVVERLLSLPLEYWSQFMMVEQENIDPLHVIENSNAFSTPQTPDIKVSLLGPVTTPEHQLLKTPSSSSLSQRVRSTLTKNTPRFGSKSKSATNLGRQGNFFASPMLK
The assay is described as follows: MgcRacGAP GTPase-activating activity inhibitors, confirmation, biochemical, ADP Hunter fluorescence, primary and confirmatory (AID 624330). The class given is functional.

Assay [11] is described as follows: HeLa cell cytotoxicity, dose response, cytotoxicity control for MgcRacGAP inhibitor project (AID 624300). It counts as functional.
The nature of assay [12]: inhibitors of intracellular T. cruzi replication, confirmation, NIH3T3 host cells, beta-gal luminescence (AID 2044).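 Further: intracellular parasites grown in NIH/3T3 mouse fibroblasts as host cells; luminescent beta-galactosidase reporter signal from transgenic T. cruzi replicating inside host cells; inhibitors lower the luminescence signal.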 The class given is functional, cell-based.
A further assay has as its target Paired box protein Pax-8 (Homo sapiens, UniProt Q06710). The assay is described as follows: inhibitors of PAX8-driven TPO luciferase reporter, dose response, RMG-I cells, cherry-pick (AID 687027).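 Further: luciferase reporter driven by Pax8 target thyroperoxidase promoter measured by SteadyGlo luminescence.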 The class given is functional, cell-based. (In a reporter assay the amount or activity of a reporter protein is the signal.)
For assay [13], the target named is T6, Small ubiquitin-related modifier 1 (Homo sapiens, UniProt P63165). The assay is described as follows: inhibitors of SUMO1 partner interactions, dose response, biochemical, FRET (AID 624383). To be noted: read-out: IC50_Mean. It counts as functional.
T6 sequence (P63165 whole entry): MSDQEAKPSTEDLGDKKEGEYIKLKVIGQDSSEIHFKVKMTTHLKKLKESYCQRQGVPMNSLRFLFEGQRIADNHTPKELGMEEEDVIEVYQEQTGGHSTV
The target in assay [14] is T6, Small ubiquitin-related modifier 1. The assay is described as follows: inhibitors of SUMO1 peptide binding, dose response, biochemical, fluorescence polarization, uHTS hits (AID 624382). It counts as functional. The following applies: read-out: IC50_Mean.
Assay [15] addresses T7, Type-1 angiotensin II receptor (Homo sapiens, UniProt P30556).
T7 sequence (P30556 whole entry): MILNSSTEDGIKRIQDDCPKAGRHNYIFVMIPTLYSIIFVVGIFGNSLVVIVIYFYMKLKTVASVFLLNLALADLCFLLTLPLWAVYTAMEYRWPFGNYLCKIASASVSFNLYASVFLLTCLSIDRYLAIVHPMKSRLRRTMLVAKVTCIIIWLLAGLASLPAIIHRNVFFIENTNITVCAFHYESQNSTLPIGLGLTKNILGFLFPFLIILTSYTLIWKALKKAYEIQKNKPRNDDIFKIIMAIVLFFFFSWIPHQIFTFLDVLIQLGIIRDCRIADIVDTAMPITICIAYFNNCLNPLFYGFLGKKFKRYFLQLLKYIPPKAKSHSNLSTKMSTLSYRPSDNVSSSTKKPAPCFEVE
The assay is described as follows: AT1 receptor antagonists, dose response, selectivity assay for APJ receptor antagonist project, cell-based, uHTS hits (AID 463214).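 Further: antagonist potency against angiotensin II stimulated AT1 response.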 The class given is functional.

In another assay the target is Beta-galactosidase (Escherichia coli, UniProt Q8VNN2). In words: PubChem AID 485352. It counts as functional.
Sequence of Beta-galactosidase (Q8VNN2 whole entry): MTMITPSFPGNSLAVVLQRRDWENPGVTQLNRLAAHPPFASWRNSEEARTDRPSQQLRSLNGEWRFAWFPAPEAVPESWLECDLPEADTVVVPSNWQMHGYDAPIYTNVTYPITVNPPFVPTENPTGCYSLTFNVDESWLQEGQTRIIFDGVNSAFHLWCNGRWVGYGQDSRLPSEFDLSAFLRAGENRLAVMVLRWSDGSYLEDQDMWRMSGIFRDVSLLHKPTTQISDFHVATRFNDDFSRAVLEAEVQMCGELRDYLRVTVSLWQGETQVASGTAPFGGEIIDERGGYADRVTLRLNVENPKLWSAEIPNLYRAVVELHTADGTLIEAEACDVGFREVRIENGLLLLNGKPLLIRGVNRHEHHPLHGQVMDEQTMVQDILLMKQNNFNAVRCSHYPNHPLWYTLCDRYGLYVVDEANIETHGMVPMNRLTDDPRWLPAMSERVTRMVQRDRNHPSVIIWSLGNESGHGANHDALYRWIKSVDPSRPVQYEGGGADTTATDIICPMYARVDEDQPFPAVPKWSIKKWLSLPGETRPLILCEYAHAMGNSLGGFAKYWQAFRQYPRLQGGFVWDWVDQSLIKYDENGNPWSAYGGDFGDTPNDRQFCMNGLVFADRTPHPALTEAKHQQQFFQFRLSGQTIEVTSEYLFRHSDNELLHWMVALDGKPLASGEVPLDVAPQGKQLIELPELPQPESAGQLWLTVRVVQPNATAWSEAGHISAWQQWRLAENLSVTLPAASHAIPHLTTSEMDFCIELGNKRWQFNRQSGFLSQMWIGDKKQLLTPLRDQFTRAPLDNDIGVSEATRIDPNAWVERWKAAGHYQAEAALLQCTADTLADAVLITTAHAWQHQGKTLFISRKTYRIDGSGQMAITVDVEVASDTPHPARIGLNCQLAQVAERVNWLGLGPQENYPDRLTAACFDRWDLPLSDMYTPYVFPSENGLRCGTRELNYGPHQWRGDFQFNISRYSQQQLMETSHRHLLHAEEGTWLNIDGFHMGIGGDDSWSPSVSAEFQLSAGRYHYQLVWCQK
The target in assay [16] is Beta-2 adrenergic receptor (Homo sapiens, UniProt P07550). The assay is described as follows: beta2AR agonists driving receptor internalization, dose response, cell-based, FAP fluorogen, flow cytometry, cherry pick 1 (AID 588763). It counts as functional. In general terms: A flow cytometer gives signals particle by particle.
Sequence of Beta-2 adrenergic receptor (P07550 whole entry): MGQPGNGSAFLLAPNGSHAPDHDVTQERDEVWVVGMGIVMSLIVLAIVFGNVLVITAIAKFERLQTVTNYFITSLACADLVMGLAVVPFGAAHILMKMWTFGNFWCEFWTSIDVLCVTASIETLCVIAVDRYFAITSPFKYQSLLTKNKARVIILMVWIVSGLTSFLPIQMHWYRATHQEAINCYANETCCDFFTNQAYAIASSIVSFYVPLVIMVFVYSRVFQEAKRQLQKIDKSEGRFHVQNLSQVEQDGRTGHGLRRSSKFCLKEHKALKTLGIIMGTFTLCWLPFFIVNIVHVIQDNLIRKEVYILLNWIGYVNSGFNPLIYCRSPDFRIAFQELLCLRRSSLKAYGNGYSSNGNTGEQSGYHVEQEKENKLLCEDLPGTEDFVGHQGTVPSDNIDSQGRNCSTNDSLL
Assay [17] addresses T1, Melanocortin receptor 4. The assay is described as follows: MC4R antagonist potency on cAMP, dose response, cell-based, TR-FRET, biased antagonists (AID 602298).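 Further: antagonist potency against agonist-stimulated cAMP production.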 It counts as functional.
The nature of assay [18]: growth suppression of beta-catenin-knockout colon cells, dose response, cell-based, HCT116, human colon tumor (AID 1045).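 Further: HCT116 colon tumor cells with beta catenin knocked out; cells exposed to compound for 60 hours.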 It counts as functional.
Assay [19] is described as follows: growth suppression of PTEN-null colon cells, dose response, cell-based, HCT116 PTEN knockout (AID 1047).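 Further: HCT116 colon tumor cells with PTEN knocked out; cells exposed to compound for 60 hours before readout; potency for loss of cell viability measured by luminescence.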 It counts as functional.
Assay [20] can be described thus: nonselective inhibitors of cellular cAMP signaling, dose response, counter-screen for MC4R biased antagonist project, cell-based, TR-FRET cAMP detection (AID 602305).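 Further: U2OS cells stimulated with forskolin near its EC80 as the cAMP inducer; potency is for inhibition of forskolin-stimulated cAMP signaling.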 It counts as functional.
Assay [21] can be described thus: Luminescence Cell-Based Dose Retest to Confirm Inhibitors of Cancer Stem Cells. [Related pubchem assays (depositor defined):AID2717, AID2721]. It counts as functional. To be noted: Homo sapiens.

SMILES strings stand for the structures. Calls of active or inactive are those of the source. Some results are limits rather than exact numbers.

T1 sequence (P32245 whole entry): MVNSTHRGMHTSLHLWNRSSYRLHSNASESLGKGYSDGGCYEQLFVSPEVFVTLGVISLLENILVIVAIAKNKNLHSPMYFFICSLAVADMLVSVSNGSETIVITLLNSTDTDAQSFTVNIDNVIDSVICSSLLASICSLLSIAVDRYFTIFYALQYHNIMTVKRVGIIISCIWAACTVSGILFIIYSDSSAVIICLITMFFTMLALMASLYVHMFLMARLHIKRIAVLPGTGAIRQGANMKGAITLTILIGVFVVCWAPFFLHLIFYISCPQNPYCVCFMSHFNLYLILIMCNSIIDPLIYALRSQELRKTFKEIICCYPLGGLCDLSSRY
Sequence of Paired box protein Pax-8 (Q06710 whole entry): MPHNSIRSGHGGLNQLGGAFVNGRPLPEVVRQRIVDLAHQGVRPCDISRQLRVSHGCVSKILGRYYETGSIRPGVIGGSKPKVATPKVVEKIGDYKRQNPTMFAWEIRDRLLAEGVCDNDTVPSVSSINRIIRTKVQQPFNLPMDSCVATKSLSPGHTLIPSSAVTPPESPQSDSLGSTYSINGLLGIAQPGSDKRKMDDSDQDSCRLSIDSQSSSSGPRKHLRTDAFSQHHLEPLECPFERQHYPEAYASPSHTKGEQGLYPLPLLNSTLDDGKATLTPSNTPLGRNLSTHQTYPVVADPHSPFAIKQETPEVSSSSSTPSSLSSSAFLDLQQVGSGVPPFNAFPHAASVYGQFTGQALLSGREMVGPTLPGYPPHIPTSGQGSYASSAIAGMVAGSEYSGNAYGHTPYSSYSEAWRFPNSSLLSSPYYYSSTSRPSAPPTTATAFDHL

As to `COc1ccc(C(NC(=O)C2CCN(CCOc3ccc(Cl)cc3Cl)CC2)c2ccccc2C)cn1` (configuration not stated), the EC50 – broadly, the concentration needed to bring the measured effect to its halfway point – on Melanocortin receptor 4 [1] was > 89.2 µM (inactive).
On to `COc1cccc(-c2nc(NCCN3CCOCC3)c3ccccc3n2)c1O`, for which the AC50 (in general, the midpoint of the concentration-response curve, whichever way the signal moves) in assay [2] was 51.4 µM (active); in assay [3], 8.35 µM (active).
In the case of `O=C(CCCn1c(=O)oc2ccccc21)N1CCc2ccccc2C1`, the IC50 in assay [4] was 8 µM (active); in [5], > 100 µM (inactive).
For `COc1ccc(/C=N/NC(=O)Cn2c(Cc3ccc(OC)c(OC)c3)nc3ccccc32)cc1`, the IC50 in [6] was > 73.4 µM (inactive).
As to `C#CCN(C[C@H]1[C@H](OC(=O)NCc2ccccc2)[C@H](OC(=O)NCc2ccccc2)C[C@H]2C(=O)N(c3ccccc3)C(=O)[C@@H]12)S(=O)(=O)c1ccc(C)cc1`, the IC50 was 42.3 µM (active) in assay [7] and 16.5 µM (active) in assay [8].
Regarding `CCN1CCC(O)(/C=C/c2ccc(C(C)C)cc2)C(C(=O)/C=C/c2ccc(C(C)C)cc2)C1` (configuration not stated), the EC50 at Melanocortin receptor 4 [1] was > 89.2 µM (inactive).
As to `O=C1NC[C@@H](CCCCN2C[C@H](Cc3ccc(O)cc3)N(CCC3CCCCC3)C(=O)C2=O)N(CC2CCCCC2)C1=O`, the IC50 in assay [7] was 37.2 µM (active); in assay [8], 8.3 µM (active).
The matching figures for `Cc1cccc(N2CCN(C(=O)c3ccc4c(c3)NC(=O)C(CSCc3cccc(F)c3)N4)CC2C)c1` (configuration not stated): 13.8 µM (active) and 3.09 µM (active).
Turning to `COc1cccc(-c2ccc3c(c2)O[C@H](CN(C)C(=O)C2CCOCC2)[C@H](C)CN([C@H](C)CO)S3(=O)=O)c1`, the AC50 in assay [2] is 15.8 µM (active).
As to `COc1ccc(Br)cc1CNCCc1cccc(Cl)c1`, the EC50 is > 60 µM (not active) in assay [9] and 1.12 µM (active) in [12]. The IC50 in assay [10] is 130 µM (active). Moreover, the CC50 (in general, the concentration at which the toxic effect on the cells reaches its halfway point) in [11] was 100 µM (active).
For `CCN1CCN(Cc2ccc(NC(=O)c3cc(NC(=O)C(=O)c4c[nH]c5ccccc45)cc(OC)c3)cc2C(F)(F)F)CC1`, at Paired box protein Pax-8, the AC50 was 8.98 µM (active). Besides, at Melanocortin receptor 4 [1], the EC50 is > 89.2 µM (inactive).
As for `NNc1ccc([N+](=O)[O-])c2n[nH]c(O)c12`, the IC50 in assay [10] is 76.8 µM (active); in [13] it was 5.04 µM (active); in [14], > 66.6 µM (inactive).
On to `O=C(Cc1ccc(NC(=O)C2CCN(C(=O)C3CCCCC3)CC2)cc1)Nc1ccc(C(=O)N2CCOCC2)cc1`, for which the IC50 in assay [6] was 5.51 µM (active).
Regarding `CC(C)Cc1nc2oc3c(Cl)ncnc3c2c2c1CCC2`, the IC50 in [15] was > 40 µM (not active); at Melanocortin receptor 4 [17], > 64.6 µM (inactive); in [20], > 64.6 µM (inactive). Further, the EC50 was > 40 µM (inactive) at Beta-galactosidase, 11.8 µM (inactive) in assay [16], 8.07 µM (active) in [18] and 18 µM (active) in assay [19]. Further, the AC50 in assay [21] was 4.61 µM (active).

For the origin of these results see ChEMBL document CHEMBL1201862, “PubChem BioAssay data set” (2004).
